In patent US6310213A, “Ethanesulfonyl-piperidine derivatives” (Hoffmann-La Roche Inc., priority 1999, dated 2001) one finds IC50 and ED50 data, which are given here for five compounds.

Values joined by “and” are separate entries in the source; they are usually repeats but may differ in a detail not shown here. Equal entries are not always repeated. A value given as a limit tells only on which side of the number the result lay.

In assay [1] the target is T1, NMDA NR2B subunit containing receptors (Rattus norvegicus, UniProt P35439+Q00960).
T1 construct: Membranes were prepared by homogenization of the whole brain minus cerebellum and medulla oblongata; from tissue; host or cells: rat whole brain minus cerebellum and medulla oblongata, membranes
T1 sequence (Q00960 27-1482, other chains not shown): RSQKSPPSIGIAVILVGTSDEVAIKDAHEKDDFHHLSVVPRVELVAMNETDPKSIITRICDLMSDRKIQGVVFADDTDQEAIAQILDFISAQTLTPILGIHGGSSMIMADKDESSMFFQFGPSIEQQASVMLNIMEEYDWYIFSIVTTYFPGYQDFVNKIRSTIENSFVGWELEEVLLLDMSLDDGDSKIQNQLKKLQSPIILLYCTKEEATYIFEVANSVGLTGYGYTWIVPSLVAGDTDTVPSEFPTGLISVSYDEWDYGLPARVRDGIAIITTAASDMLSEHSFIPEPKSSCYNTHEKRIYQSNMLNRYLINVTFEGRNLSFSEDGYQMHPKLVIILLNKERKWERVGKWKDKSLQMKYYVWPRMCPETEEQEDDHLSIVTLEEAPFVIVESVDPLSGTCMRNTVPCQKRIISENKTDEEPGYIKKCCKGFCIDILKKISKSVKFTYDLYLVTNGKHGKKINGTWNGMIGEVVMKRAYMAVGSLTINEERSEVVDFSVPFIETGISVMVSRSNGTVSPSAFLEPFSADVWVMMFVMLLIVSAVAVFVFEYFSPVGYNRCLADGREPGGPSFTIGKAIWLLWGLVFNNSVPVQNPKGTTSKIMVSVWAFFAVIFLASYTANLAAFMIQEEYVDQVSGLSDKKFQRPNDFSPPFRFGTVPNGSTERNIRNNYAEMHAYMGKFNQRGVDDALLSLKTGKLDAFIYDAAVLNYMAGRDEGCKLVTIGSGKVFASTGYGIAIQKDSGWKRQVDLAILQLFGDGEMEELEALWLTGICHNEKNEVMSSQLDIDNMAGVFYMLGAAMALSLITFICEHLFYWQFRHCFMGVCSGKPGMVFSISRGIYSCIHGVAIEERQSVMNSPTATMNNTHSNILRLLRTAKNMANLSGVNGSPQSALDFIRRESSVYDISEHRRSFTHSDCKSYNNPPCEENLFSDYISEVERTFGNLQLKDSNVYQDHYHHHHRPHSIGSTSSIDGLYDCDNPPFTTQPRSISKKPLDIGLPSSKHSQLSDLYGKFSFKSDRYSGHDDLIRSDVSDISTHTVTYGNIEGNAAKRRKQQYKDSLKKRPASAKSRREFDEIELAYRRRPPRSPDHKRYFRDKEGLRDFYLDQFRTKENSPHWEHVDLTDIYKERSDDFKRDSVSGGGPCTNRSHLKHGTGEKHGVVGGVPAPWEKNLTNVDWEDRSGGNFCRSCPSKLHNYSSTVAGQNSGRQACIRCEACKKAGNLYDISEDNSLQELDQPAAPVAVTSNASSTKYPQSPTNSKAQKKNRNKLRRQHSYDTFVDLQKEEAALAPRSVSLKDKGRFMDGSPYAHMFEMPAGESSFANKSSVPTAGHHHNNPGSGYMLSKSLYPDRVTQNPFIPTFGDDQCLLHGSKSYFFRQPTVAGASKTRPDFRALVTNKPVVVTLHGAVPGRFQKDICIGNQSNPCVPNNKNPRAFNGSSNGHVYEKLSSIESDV
Kind of assay: 3H [R-(R*,S*)]-α-(4-Hydroxy-phenyl)-β-methyl-4-(phenyl-methyl)-1-piperidine propanol binding. Further details: species or system rat (Male Fullinsdorf albino rats). The settings on record: rat brain membranes, 5 nM radioligand, 2 hours at 4° C., pH 7.4; read-out: Inhibition of 3H [R-(R*, S*)]-α-(4-Hydroxy-phenyl)-β-methyl-4-(phenyl-methyl)-1-piperidine propanol binding IC50. As to the method: ^a Inhibition of binding indicates affinity for NMDA NR2B subunit
3H [R-(R*,S*)]-α-(4-Hydroxy-phenyl)-β-methyl-4-(phenyl-methyl)-1-piperidine propanol) binding
(§1) Male Fullinsdorf albino rats weighing between 150-200 g were used. Membranes were prepared by homogenization of the whole brain minus cerebellum and medulla oblongata with a Polytron (10.000 rpm, 30 seconds), in 25 volumes of a cold Tris-HCl 50 mM, EDTA 10 mM, pH 7.1 buffer. The homogenate was centrifuged at 48.000 g for 10 minutes at 4° C. The pellet was resuspended using the Polytron in the same volume of buffer and the homogenate was incubated at 37° C. for 10 minutes. After centrifugation the pellet was homogenized in the same buffer and frozen at -100° C. for at least 16 hours but not more than 10 days. For the binding assay the homogenate was thawed at 37° C., centrifuged and the pellet was washed three times as above in a Tris-HCl 5 mM, pH 7.4 cold buffer. The final pellet was resuspended in the same buffer and used at a final concentration of 200 μg of protein/ml.
3H [R-(R*,S*)]-α-(4-Hydroxy-phenyl)-β-methyl-4-(phenyl-methyl)-1-piperidine propanol binding experiments were performed using a Tris-HCl 50 mM, pH 7.4 buffer. For displacement experiments 5 nM of 3H [R-(R*,S*)]-α-(4-Hydroxy-phenyl)-β-methyl-4-(phenyl-methyl)-1-piperidine propanol were used and non specific binding was measured using 10 μM of tetrahydroisoquinoline and usually it accounts for 10% of the total. The incubation time was 2 hours at 4° C. and the assay was stopped by filtration on Whatmann GF/B glass fiber filters (Unifilter-96, Packard, Zurich, Switzerland). The filters were washed 5 times with cold buffer. The radioactivity on the filter was counted on a Packard Top-count microplate scintillation counter after addition of […] of microscint 40 (Canberra Packard S. A., Zurich, Switzerland).
The effects of compounds were measured using a minimum of 8 concentrations and repeated at least once. The pooled normalized values were analyzed using a non-linear regression calculation program which provide IC50 with their relative upper and lower 95% confidence limits (RS1, BBN, USA).

A further assay deals with T2, NMDA NR1 + NR2B (Homo sapiens, UniProt Q05586+Q13224).
T2 construct: expressed in transfected cells; host or cells: Xenopus oocytes
Kind of assay: Block of recombinant NMDA receptor subtype NR1 + NR2B expressed in Xenopus oocytes. It is filed as cell-based. From the text:
(§2) ^c Indicates the ability to block selectively recombinant NMDA receptor
(§3) subtypes expressed in Xenopus oocytes.

Assay [2] addresses T3, recombinant human ERG potassium channels (Homo sapiens, UniProt Q12809).
T3 construct: expressed in transfected cells; host or cells: CHO cells, stably transfected with pcDNA3-HERG
Kind of assay: Inhibition of the HERG K+ channel, whole-cell patch-clamp, transfected CHO cells. Format: cell-based. The settings on record: concentrations above 10 μM not tested. The source says:
Method 3 Methods for Studying the Inhibition of the HERG K^+ Channel CHO cells were stably transfected by a pcDNA3-HERG expression vector containing a SV40-neo cassette for selection. Cells were thinly plated into 35 mm dishes and used for the electrophysiological experiment 1/2-3 d later. […] A 10-mM stock solution of the test compound was made from pure DMSO. Test solution were made by at least 1000-fold dilution of the stock solution into the extracellular saline. […] The whole-cell configuration of the patch-clamp technique was used for the experiments. […] The membrane current was recorded for at least 3 min (18 stimuli) before compound application (control), and then for another two 3-min intervals in presence of two different concentrations of the compound. The current amplitudes (Itest) at the end of each compound application interval were divided by the mean current amplitude (Icontrol) during the initial control period to calculate the percentage effect of the compound: effect (%)=(1-Itest /Icontrol)·100. […] If after the first experiment the IC50 turned out to lie outside the range between the two chosen concentrations the concentrations were changed to bracket the IC50 in the following experiments. The compound was tested on at least three cells.

The target in another assay is α1-adrenergic receptors. Nature of the assay: 3H-Prazosin binding. Further details: species or system rat (Male Fullinsdorf albino rats). The following applies: rat brain membranes, 0.2 nM 3H-Prazosine, 30 minutes at room temperature, pH 7.4; read-out: Inhibition of [3H]-Prazosin binding IC50. As to the method:
^b Inhibition of binding indicates affinity for α1
as §1, with “a Plytron” for “a Polytron”, “at -80°” for “at -100°”, “Tris-HCl 15mM,” for “Tris-HCl 5 mM,”, “[…]” for “200 μg”
3H-Prazosin binding experiments were performed using a Tris-HCl 50 mM, pH 7.4 buffer. For displacement experiments 0.2 nM of 3H-Prazosine were used and non specific binding was measured using […] of Chlorpromazine. The incubation time was 30 minutes at room temperature and the assay was stopped by filtration on Whatman GF/B glass fiber filters (Ubrifilter-96, Canberra Packard S. A., Zurich, Switzerland). The filters were washed 5 times with cold buffer. The radioactivity on the filter was counted on a Packard Top-count microplate scintillation counter after addition of […] of microscint 40 (Canberra Packard S. A., Zurich, Switzerland). The effects of compounds were measured using a minimum of 8 concentrations and repeated at least once. The pooled normalized values were analyzed using a non-linear regression calculation program which provide IC50 with their relative upper and lower 95% confidence limits (RS1, BBN, USA).

Assay [3] has as its system i.c.v. NMDA-induced convulsions in mice. Nature of the assay: Block of i.c.v. NMDA-induced convulsions in mice. It is filed as in vivo. The settings on record: Mus musculus, iv. From the text: |^d Indicates potency in mg/kg i.v. to block i.c.v. NMDA-induced | convulsions in mice.
The target in another assay is T4, NMDA NR1 + NR2A (Homo sapiens, UniProt Q05586+Q12879).
T4 construct: expressed in transfected cells; host or cells: Xenopus oocytes
T4 sequence (Q12879 23-1464, other chains not shown): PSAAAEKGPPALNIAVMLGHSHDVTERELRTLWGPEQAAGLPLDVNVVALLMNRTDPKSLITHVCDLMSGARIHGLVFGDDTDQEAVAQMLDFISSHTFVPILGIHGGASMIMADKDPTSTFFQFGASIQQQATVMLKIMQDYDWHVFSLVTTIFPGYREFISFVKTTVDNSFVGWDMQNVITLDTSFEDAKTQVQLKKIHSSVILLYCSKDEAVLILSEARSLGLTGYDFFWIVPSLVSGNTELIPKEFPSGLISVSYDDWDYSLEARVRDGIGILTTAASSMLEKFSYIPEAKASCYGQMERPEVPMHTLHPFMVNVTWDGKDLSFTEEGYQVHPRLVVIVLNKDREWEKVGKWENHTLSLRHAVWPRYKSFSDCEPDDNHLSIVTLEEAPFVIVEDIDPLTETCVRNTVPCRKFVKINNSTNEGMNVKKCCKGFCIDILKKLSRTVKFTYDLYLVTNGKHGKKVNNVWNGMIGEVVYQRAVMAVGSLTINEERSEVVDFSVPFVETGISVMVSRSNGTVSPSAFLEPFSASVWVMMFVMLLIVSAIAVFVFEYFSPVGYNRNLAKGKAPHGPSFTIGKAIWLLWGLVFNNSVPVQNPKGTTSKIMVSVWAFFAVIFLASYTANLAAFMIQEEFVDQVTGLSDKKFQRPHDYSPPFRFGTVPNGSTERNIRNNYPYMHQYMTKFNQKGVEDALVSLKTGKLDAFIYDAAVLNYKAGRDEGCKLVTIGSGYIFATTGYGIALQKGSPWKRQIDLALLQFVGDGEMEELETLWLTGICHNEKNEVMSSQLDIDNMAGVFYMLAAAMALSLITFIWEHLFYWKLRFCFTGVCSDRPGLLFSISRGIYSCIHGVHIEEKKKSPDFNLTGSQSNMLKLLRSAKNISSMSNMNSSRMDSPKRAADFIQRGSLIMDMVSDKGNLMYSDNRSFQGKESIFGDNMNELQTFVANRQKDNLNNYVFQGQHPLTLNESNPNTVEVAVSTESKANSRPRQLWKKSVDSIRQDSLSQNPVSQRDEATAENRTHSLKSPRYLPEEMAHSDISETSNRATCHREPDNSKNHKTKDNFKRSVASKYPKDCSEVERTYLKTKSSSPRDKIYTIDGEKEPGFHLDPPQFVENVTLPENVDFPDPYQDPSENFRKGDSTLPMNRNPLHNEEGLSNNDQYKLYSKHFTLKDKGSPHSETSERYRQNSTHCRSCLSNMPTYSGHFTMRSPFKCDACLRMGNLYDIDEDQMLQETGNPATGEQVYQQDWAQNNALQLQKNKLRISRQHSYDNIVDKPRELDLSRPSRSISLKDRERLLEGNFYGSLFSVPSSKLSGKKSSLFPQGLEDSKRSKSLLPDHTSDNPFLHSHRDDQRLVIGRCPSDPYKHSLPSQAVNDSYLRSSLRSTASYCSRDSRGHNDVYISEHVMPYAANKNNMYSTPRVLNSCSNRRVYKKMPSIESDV
Nature of the assay: Block of recombinant NMDA receptor subtype NR1 + NR2A expressed in Xenopus oocytes. It is filed as cell-based.
From the text: as §2, §3

T3 sequence (Q12809 whole entry): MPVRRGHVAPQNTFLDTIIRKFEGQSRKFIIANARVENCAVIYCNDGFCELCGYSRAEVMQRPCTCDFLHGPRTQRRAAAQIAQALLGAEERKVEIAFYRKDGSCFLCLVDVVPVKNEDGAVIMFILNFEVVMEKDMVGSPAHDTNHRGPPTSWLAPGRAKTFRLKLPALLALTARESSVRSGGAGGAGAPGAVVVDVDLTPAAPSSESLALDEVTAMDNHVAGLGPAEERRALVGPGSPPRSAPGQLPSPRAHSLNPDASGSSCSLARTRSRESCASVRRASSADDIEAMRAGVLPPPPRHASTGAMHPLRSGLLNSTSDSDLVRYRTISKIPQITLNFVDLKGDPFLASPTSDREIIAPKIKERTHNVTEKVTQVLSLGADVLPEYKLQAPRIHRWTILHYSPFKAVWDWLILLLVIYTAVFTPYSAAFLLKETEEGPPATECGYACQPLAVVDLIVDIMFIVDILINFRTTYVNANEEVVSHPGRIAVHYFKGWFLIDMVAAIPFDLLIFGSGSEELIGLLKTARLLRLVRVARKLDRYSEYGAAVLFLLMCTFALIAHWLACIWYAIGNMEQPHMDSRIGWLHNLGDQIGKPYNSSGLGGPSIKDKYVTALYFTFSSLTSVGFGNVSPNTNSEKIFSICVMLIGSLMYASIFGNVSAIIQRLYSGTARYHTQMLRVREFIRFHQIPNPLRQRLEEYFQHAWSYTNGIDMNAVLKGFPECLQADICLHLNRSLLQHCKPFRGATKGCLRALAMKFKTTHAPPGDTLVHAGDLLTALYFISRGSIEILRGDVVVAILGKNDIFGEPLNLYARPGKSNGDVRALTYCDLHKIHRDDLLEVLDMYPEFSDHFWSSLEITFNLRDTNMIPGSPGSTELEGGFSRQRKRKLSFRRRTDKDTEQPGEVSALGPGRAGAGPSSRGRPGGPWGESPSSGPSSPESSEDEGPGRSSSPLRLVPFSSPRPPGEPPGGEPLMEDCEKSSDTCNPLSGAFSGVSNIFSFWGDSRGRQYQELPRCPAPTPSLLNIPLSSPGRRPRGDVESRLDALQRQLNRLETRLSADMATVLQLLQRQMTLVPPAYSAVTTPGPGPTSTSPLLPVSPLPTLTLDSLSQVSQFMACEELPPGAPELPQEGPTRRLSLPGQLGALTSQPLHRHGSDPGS

With `Cc1ccc(C[C@H]2CCN(CCS(=O)(=O)c3ccc(O)cc3)C[C@H]2O)cc1` (single isomer, unassigned) [Compound 6, (-)(cis)-1-[2-(4-hydroxy-benzenesulfonyl)-ethyl]-4-(4-methyl-benzyl)-piperidin-3-ol], the IC50 in assay [1] is 11 nM and 11 to 24 nM; at NMDA NR1 + NR2B it was 8 nM; in assay [2] it was 3700 nM; on α1-adrenergic receptors it was 88000 nM; on NMDA NR1 + NR2A it was over 10000 nM. This compound also showed an ED50 in assay [3] of 2.2 mg/kg.

Consider `O=S(=O)(CCN1CCC(Cc2ccccc2)CC1)c1ccc(O)cc1` [Compound 1, 4[-2-(4-benzyl-piperidine-1-yl)-ethanesulfonyl]-phenol], for which the IC50 in assay [1] is 18 nM and 11 to 24 nM; at NMDA NR1 + NR2B, under 10 nM; in assay [2], 4000 nM; on α1-adrenergic receptors, 42000 nM; at NMDA NR1 + NR2A it was over 10000 nM. Further, in assay [3], it took a dose of 1.1 mg/kg to reach the 50% effect level (ED50).

As to `Cc1ccc(OC2CCN(CCS(=O)(=O)c3ccc(O)cc3)CC2)cc1` [Compound 2, 4-[2-(4-p-tolyloxy-piperidin-1-yl)-ethanesulfonyl]-phenol], the IC50 is 24 nM and 11 to 24 nM in assay [1]; under 10 nM on NMDA NR1 + NR2B; 4700 nM in assay [2]; 16000 nM at α1-adrenergic receptors; over 10000 nM on NMDA NR1 + NR2A. Besides, in assay [3], the ED50 came out at 0.84 mg/kg.

Turning to `O=S(=O)(CCN1CC[C@H](Cc2ccccc2)[C@H](O)C1)c1ccc(O)cc1` [Compound 3, (-)(3S,4S)-4-benzyl-1-[2-(4-hydroxy-benzenesulfonyl)-ethyl]-piperidin-3-ol], the IC50 in assay [1] was 14 nM and 11 to 24 nM; at NMDA NR1 + NR2B, 38 nM; on α1-adrenergic receptors it was 55000 nM; at NMDA NR1 + NR2A, over 10000 nM. The compound also returned an ED50 in assay [3] of 3.8 mg/kg.

Turning to `Cc1ccc(CC2(O)CCN(CCOc3ccc(O)cc3)CC2)cc1` [Compound 9, 1-[2-(4-hydroxy-phenoxy)-ethyl]-4-(4-methyl-benzyl)-piperidin-4-ol, reference compound], the IC50 on NMDA NR1 + NR2B is 3 nM; in assay [2], 690 nM; at α1-adrenergic receptors it was 3500 nM; at NMDA NR1 + NR2A it was over 100000 nM. Also, the 50% effective dose (ED50) in assay [3] is 2.3 mg/kg.
